{"source": "patent US20050222266A1", "about": "“2-indanylamino derivatives for the therapy of chronic pain” (priority 2002, published 2005)", "key": {"[1]": {"system": "formalin-induced licking and flinching", "test": "mice paw formalin test, acute treatment", "format": "in vivo", "conditions": "for Late phase licking/flinching time: 10 to 40 min; for Early phase licking/flinching time: first 5 min", "description": "(§1) The mice paw formalin test was performed as described by Wheeler-Aceto et al. (Psychopharmacology 104:35-44, 1991). Briefly, the day before the formalin injection, mice were placed individually into clear plastic cylinders for 30 minutes of adaptation. The day of testing 20 μl of 1% formalin was injected into the plantar surface of the left hind paw and the animals were again placed into the plastic cylinder for the behavioural observation. The amount of time, in seconds, the animals spent licking and flinching (L/F) the injected paw for the first 5 min (early phase), and then from 10 to 40 min(late phase) after formalin injection, was used as measurement of intensity of pain. CHF 3381 10-100 mg/kg i.p. and 25-200 mg/kg p.o. or the corresponding vehicles, were administered 15 and 30 min before formalin injection, respectively."}, "[2]": {"system": "ion channel associated to NMDA receptors", "test": "inhibiting activity on NMDA-associated ion channel", "format": "biochemical"}, "[3]": {"test": "rotarod test, mice", "conditions": "mouse, in vivo, 15 min before test", "description": "(§2) The side-effect profile of CHF 3381 was then evaluated in the rotarod test both in mice and rats. The day before the execution of the test, mice and rats were trained to maintain their equilibrium on the test apparatus. For mice, training consisted of 3 subsequent 2 min attempts on a rod rotating from 4.5 r.p.m. to 16.5 r.p.m.; for rats, of 3 subsequent 1 min attempts at 8 rpm (Kinnard and Carr, 1957). The morning of the test day, mice and rats were again tested on the rotarod and only animals able to maintain their equilibrium on the rod were retained for the experimental procedure. CHF 3381 was administered p.o. or i.p. to groups of at least 8 animals 15 min (time of peak effect for neurotoxicity) before the execution of the test. All controls received the corresponding vehicle. The number of mice falling during a 2-min test period and the number of rats falling for 3 subsequent 1-min attempts were used for the calculation of the respective doses at which 50% of the animals display neurotoxicity (TD50)."}, "[4]": {"system": "acute pain, hot plate 55° C.", "test": "hot-plate test, mice", "format": "in vivo", "conditions": "15 min", "description": "(§3) The effect of CHF 3381 was studied in acute pain with hot-plate test described by Eddy et al (1953). The test was performed on an electrically heated and thermostatically controlled copper surface, set to a temperature of 55 or 51° C. with mice and rats, respectively.\n(§4) The animals were confined to the hot plate by a transparent observation chamber and the latency to the response consisting of licking of the hind paws, was measured. A cut-off period of 60 sec was used to avoid tissue damage.\n(§5) After i.p. administration, CHF 3381 (30-45-60 and 100 mg/kg in mouse; 30-37-45 and 60 mg/kg in rats), produced a significant and dose-dependent increase in the latency of the hindpaw licking response compared to vehicle-treated animals (Table 6)."}, "[5]": {"system": "acute pain, hot plate 51° C.", "test": "hot-plate test, rats", "format": "in vivo", "conditions": "15 min", "description": "as §3, §4, §5"}, "[6]": {"target": "NMDA receptors channels", "conditions": "displacement of [3H]-TPC; cited from earlier work"}, "[7]": {"test": "rotarod test, rats", "conditions": "rat, in vivo, 15 min before test", "description": "as §2"}, "[8]": {"system": "rat MES model", "conditions": "cited from earlier work"}, "[9]": {"system": "formalin-induced licking and flinching", "test": "mouse formalin test, 9 day treatment (tolerance)", "format": "in vivo, mice", "description": "as §1\nMoreover, the formalin test was used to examine whether tolerance develops with respect to the antihyperalgesic effect of CHF 3381 after chronic treatment in comparison with the standard opioid morphine. Briefly, mice were divided randomly into five groups (12 mice per group) and administered once daily for 8 days as follows: three groups with saline i.p., one group with CHF 3381 60 mg/kg i.p. and one group with morphine 20 mg/kg i.p. On ninth day these groups were treated in following way: one saline pre-treated group was treated with saline i.p. (g1); two saline pre-treated group were treated with CHF 3381 30 mg/kg i.p. (g2) and with morphine 6 mg/kg i.p. (g3), respectively; the group pre-treated with CHF 3381 60 mg/kg was treated with CHF 3381 30 mg/kg i.p. (g4) and the group pre-treated with morphine 20 mg/kg was treated with morphine 6 mg/kg i.p.(g5), a dose that was previously shown to be active in the formalin test. CHF 3381 and morphine were administered 15 and 30 min before formalin injection, respectively."}, "[10]": {"system": "mechanical hyperalgesia in streptozotocin (STZ)-induced diabetic neuropathy", "test": "streptozotocin-induced diabetic neuropathy, paw pressure test", "format": "in vivo, rat", "conditions": "for Nociceptive threshold: 60 minutes before measurement; for % variation of the nociceptive threshold: vs vehicle-treated diabetic group", "description": "The objective of this study was to assess the antinociceptive effects of CHF 3381 (25, 50 and 100 mg/kg p.o.) and gabapentin (100 mg/kg p.o) on mechanical hyperalgesia in streptozotocin (STZ)-induced diabetic neuropathy in rats. Diabetes was induced by intraperitoneal injection of STZ (75 mg/kg), and 23 days later its presence was confirmed by measuring of tail vein blood glucose levels and only rats with […] were included in the study.\nAfter 25 days, distilled water, CHF3381 and gabapentin were administered 60 minutes before pain measurement. The nociceptive threshold was evaluated in all groups using a mechanical nociceptive stimulation (paw pressure test).\nAn increasing pressure (grams of contact pressure) was applied onto the both hind paws of the animal until a nociceptive reaction (vocalisation or paw withdrawal) was determined. The results, expressed as the percentage variation of the nociceptive threshold calculated respect the mean value of the vehicle-treated diabetic group, are reported in Table 2."}, "[11]": {"conditions": "G2: 30 mg/kg i.p. on ninth day after 8 days saline"}, "[12]": {"conditions": "G4: 30 mg/kg i.p. on ninth day after 8 days CHF 3381 60 mg/kg i.p."}}, "note": "Where a name gives a salt, the structure may show the parent alone.", "data": [{"molecule": "NC(=O)CNC1Cc2ccccc2C1", "note": "[CHF 3381, N-2(indanyl)-glicinamide hydrochloride]", "values": [{"measurement": "Late phase licking/flinching time", "setting": "[1]; 10 mg/kg i.p.", "value": "165 ± 26", "unit": "s"}, {"measurement": "Early phase licking/flinching time", "setting": "[1]; 10 mg/kg i.p.", "value": "95 ± 8", "unit": "s"}, {"measurement": "Late phase licking/flinching time", "setting": "[1]; 25 mg/kg p.o.", "value": "92 ± 25", "unit": "s"}, {"measurement": "Early phase licking/flinching time", "setting": "[1]; 25 mg/kg p.o.", "value": "99 ± 8", "unit": "s"}, {"measurement": "Late phase licking/flinching time", "setting": "[1]; 30 mg/kg i.p.", "value": "58 ± 1", "unit": "s"}, {"measurement": "Early phase licking/flinching time", "setting": "[1]; 30 mg/kg i.p.", "value": "59 ± 9", "unit": "s"}, {"measurement": "Late phase licking/flinching time", "setting": "[1]; 50 mg/kg p.o.", "value": "30 ± 9", "unit": "s"}, {"measurement": "Early phase licking/flinching time", "setting": "[1]; 50 mg/kg p.o.", "value": "72 ± 7", "unit": "s"}, {"measurement": "Late phase licking/flinching time", "setting": "[1]; 60 mg/kg i.p.", "value": "17 ± 5", "unit": "s"}, {"measurement": "Early phase licking/flinching time", "setting": "[1]; 60 mg/kg i.p.", "value": "32 ± 7", "unit": "s"}, {"measurement": "Late phase licking/flinching time", "setting": "[1]; 100 mg/kg i.p.", "value": "2 ± 2", "unit": "s"}, {"measurement": "Early phase licking/flinching time", "setting": "[1]; 100 mg/kg i.p.", "value": "17 ± 4", "unit": "s"}, {"measurement": "Late phase licking/flinching time", "setting": "[1]; 100 mg/kg p.o.", "value": "23 ± 16", "unit": "s"}, {"measurement": "Early phase licking/flinching time", "setting": "[1]; 100 mg/kg p.o.", "value": "46 ± 7", "unit": "s"}, {"measurement": "Late phase licking/flinching time", "setting": "[1]; 200 mg/kg p.o.", "value": "12 ± 10", "unit": "s"}, {"measurement": "Early phase licking/flinching time", "setting": "[1]; 200 mg/kg p.o.", "value": "47 ± 4", "unit": "s"}, {"measurement": "acute and tonic formalin-induced licking response", "setting": "[1]; mice, 100 mg/kg p.o. and 60 mg/kg i.p.", "value": "almost completely blocked"}, {"measurement": "inhibiting activity towards ion channel associated to NMDA receptors", "setting": "[2]", "value": "inhibiting activity"}, {"measurement": "TD50 at 15 min", "setting": "[3]; ip, i.p. administration", "value": 96, "unit": "mg/kg"}, {"measurement": "TD50 at 15 min", "setting": "[3]; oral administration", "value": 233, "unit": "mg/kg"}, {"measurement": "latency of the hindpaw licking response", "setting": "[4]; 30 mg/kg i.p.", "value": "19.40 ± 1.37", "unit": "s"}, {"measurement": "latency of the hindpaw licking response", "setting": "[4]; 45 mg/kg i.p.", "value": "20.16 ± 1.73", "unit": "s"}, {"measurement": "latency of the hindpaw licking response", "setting": "[4]; 60 mg/kg i.p.", "value": "26.95 ± 2.45", "unit": "s"}, {"measurement": "latency of the hindpaw licking response", "setting": "[4]; 100 mg/kg i.p.", "value": "37.71 ± 3.17", "unit": "s"}, {"measurement": "latency of the hindpaw licking response", "setting": "[5]; 30 mg/kg i.p.", "value": "22.44 ± 2.07", "unit": "s"}, {"measurement": "latency of the hindpaw licking response", "setting": "[5]; 37 mg/kg i.p.", "value": "26.24 ± 2.22", "unit": "s"}, {"measurement": "latency of the hindpaw licking response", "setting": "[5]; 45 mg/kg i.p.", "value": "39.59 ± 3.56", "unit": "s"}, {"measurement": "latency of the hindpaw licking response", "setting": "[5]; 60 mg/kg i.p.", "value": "42.80 ± 3.27", "unit": "s"}, {"measurement": "Ki", "setting": "[6]", "value": 8.8, "unit": "µM"}, {"measurement": "TD50 at 15 min", "setting": "[7]; ip, i.p. administration", "value": 113, "unit": "mg/kg"}, {"measurement": "TD50 at 15 min", "setting": "[7]; oral administration", "value": 299, "unit": "mg/kg"}, {"measurement": "anti-convulsivant activity", "setting": "[8]", "value": "anti-convulsivant activity"}, {"measurement": "Early phase", "setting": "[9]; [11]", "value": "53 ± 8", "unit": "s"}, {"measurement": "Late phase", "setting": "[9]; [11]", "value": "91 ± 21", "unit": "s"}, {"measurement": "Early phase", "setting": "[9]; [12]", "value": "56 ± 6", "unit": "s"}, {"measurement": "Late phase", "setting": "[9]; [12]", "value": "74 ± 21", "unit": "s"}, {"measurement": "antihyperalgesic action after chronic treatment (tolerance)", "setting": "[9]; once daily for 8 days, test on ninth day", "value": "lack of development of tolerance"}, {"measurement": "Nociceptive threshold", "setting": "[10]; 25 mg/kg p.o.", "value": "250.0 ± 17.0", "unit": "g"}, {"measurement": "% variation of the nociceptive threshold", "setting": "[10]; 25 mg/kg p.o.", "value": 83, "unit": "%"}, {"measurement": "Nociceptive threshold", "setting": "[10]; 50 mg/kg p.o.", "value": "319.2 ± 48.5", "unit": "g"}, {"measurement": "% variation of the nociceptive threshold", "setting": "[10]; 50 mg/kg p.o.", "value": 134, "unit": "%"}, {"measurement": "Nociceptive threshold", "setting": "[10]; 100 mg/kg p.o.", "value": "287.5 ± 20.3", "unit": "g"}, {"measurement": "% variation of the nociceptive threshold", "setting": "[10]; 100 mg/kg p.o.", "value": 110, "unit": "%"}]}]}
